# Assay results from paper PMC6146087, “α-Glucosidase Inhibitors From the Coral-Associated Fungus Aspergillus terreus” (Frontiers in Chemistry, 2018).
# Target: T1, α-glucosidase enzyme from Saccharomyces cerevisiae (Saccharomyces cerevisiae, UniProt P53341)
# T1 construct: purchased Sigma Aldrich, USA
# Assay: biochemical
# Method: The α-glucosidase enzyme from Saccharomyces cerevisiae (Sigma Aldrich, USA) solution (1.5 U/mL) was prepared by dissolving the α-glucosidase in […] phosphate buffer (pH 6.8). The α-glucosidase enzyme solution (20 μL), test compounds (10 μL) and buffer (40 μL) were pipetted and mixed in a 96 well microtiter plate. The mixture was incubated at 37°C for 10 min. After incubation, p-nitrophenyl-α-D-glucopyranoside (PNP-G) substrate solution (10 μL, in 20 mM phosphate buffer) was added. The increment of absorbance due to the hydrolysis of PNP-G by α-glucosidase was measured at the wavelength of 410 nm with a microplate reader (Thermo Scientific, Waltham, MA). […] The α-glucosidase inhibitory activity was expressed as percentage inhibition and was calculated using the following formula: inhibition (%) = [1–(ODsample/ODblank)] × 100.
# T1 sequence (P53341 whole entry): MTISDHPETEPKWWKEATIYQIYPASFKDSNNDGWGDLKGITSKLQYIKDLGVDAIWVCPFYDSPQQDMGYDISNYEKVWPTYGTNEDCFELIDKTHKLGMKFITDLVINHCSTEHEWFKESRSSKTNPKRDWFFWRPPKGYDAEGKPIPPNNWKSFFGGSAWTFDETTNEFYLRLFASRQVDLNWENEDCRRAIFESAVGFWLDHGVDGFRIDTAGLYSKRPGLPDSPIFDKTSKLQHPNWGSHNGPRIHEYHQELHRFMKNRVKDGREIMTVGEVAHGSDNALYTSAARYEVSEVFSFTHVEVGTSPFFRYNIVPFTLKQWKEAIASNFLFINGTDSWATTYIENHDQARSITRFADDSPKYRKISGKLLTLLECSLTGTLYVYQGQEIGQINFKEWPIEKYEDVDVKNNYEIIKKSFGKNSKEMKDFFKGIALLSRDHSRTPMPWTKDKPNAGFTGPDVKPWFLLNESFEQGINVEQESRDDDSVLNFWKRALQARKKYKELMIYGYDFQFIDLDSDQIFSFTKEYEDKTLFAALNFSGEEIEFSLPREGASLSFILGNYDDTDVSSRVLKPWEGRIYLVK
row,SMILES,IC50 [µM]
1,"COc1ccc(C2=C(Cc3ccc4c(c3)CC(C(C)(C)O)O4)[C@H](OC)OC2=O)cc1 (single isomer, unassigned; (+)) [3b, (+)-Asperteretone C]",49.8 ± 5.7
2,"COc1ccc(C2=C(Cc3ccc4c(c3)CC(C(C)(C)O)O4)[C@@H](OC)OC2=O)cc1 (single isomer, unassigned; (-)) [3a, (−)-Asperteretone C]",52.2 ± 4.6
3,"COC(=O)[C@@H](Cc1ccc(O)c(CC=C(C)C)c1)[C@H](C(=O)O)c1ccc(O)cc1 [1a, (−)-Asperteretone A]",45.4 ± 3.8
4,"COC(=O)[C@H](Cc1ccc(O)c(CC=C(C)C)c1)[C@@H](C(=O)O)c1ccc(O)cc1 [1b, (+)-Asperteretone A]",53.1 ± 1.4
5,"CO[C@H]1OC(=O)C(c2ccc(O)cc2)=C1Cc1ccc(O)c(CC=C(C)C)c1 [2a, (−)-Asperteretone B]",17.3 ± 2.4
6,"CO[C@@H]1OC(=O)C(c2ccc(O)cc2)=C1Cc1ccc(O)c(CC=C(C)C)c1 [2b, (+)-Asperteretone B]",19.2 ± 1.9
7,"CO[C@H]1OC(=O)C(c2ccc(O)cc2)=C1Cc1ccc2c(c1)CCC(C)(C)O2 [4a, (−)-Asperteretone D]",15.7 ± 1.1
8,"CO[C@@H]1OC(=O)C(c2ccc(O)cc2)=C1Cc1ccc2c(c1)CCC(C)(C)O2 [4b, (+)-Asperteretone D]",18.9 ± 2.3
9,"COC1OC(=O)C(c2ccc(O)cc2)=C1Cc1ccc(O)c(CCC(C)(C)O)c1 (stereo not drawn) [compound 5, Asperteretone E]",48.9 ± 7.3
